Data on 18 compounds can be found in patent US20200270232A1, “INHIBITORS OF INTEGRATED STRESS RESPONSE PATHWAY” (Praxis Biotech LLC, priority 2019, published 2020).

Molecules are shown by their SMILES. Some results are limits rather than exact numbers.

In one assay the test system is ATF4. Nature of the assay: ATF4 expression inhibition assay (ATF4 luciferase reporter). The assay is classed as cell-based. Particulars: Homo sapiens, HEK-293T; HEK293T cells carrying the ATF4 luciferase reporter, 100 nM thapsigargin (Tg), 3 hours; read-out: ATF4 inhbition IC50. The procedure:
The ATF4 reporter was prepared by fusing the human full length 5′UTR of ATF4 (NCBI Accession No. BC022088.2) upstream of the firefly luciferase coding sequence lacking the initiator methionine. The fused sequence was cloned into pLenti-EF1a-C-Myc-DDK-IRES-Puro cloning vector (Origen # PS 100085) using standard methods. Virus production was carried out by using Lenti-X™ Packaging Single Shots Protocol (Clonetech #631276). Viral particles were used to transduce HEK293T cells (ATCC # CRL-3216, ATCC Manassas, Va.), which were subsequently selected with puromycin to generate stable cell line. Cells were maintained at 37° C. and 5% CO2 in DMEM-F12 (Hyclone # SH30023.02) supplemented with 10% heat-inactivated fetal bovine serum (Gibco #16000-044), 2 mM L-glutamine (Gibco #25030-081), 100 U/ml penicillin, and 100 μg/ml streptomycin (Gibco #15140-122).
HEK293T cells carrying the ATF4 luciferase reporter were plated on 96-well plates (Nunc) at 10,000 cells per well. Cells were treated two days after seeding with 100 nM thapsigargin (Tg) (Sigma-Aldrich # T9033) in the presence of different concentrations of selected compounds ranging from 1 nM to 10 μM. Cells without treatment or cells treated with Tg alone were used as controls. Assay plates containing cells were incubated for 3 hours at 37° C.
Luciferase reactions were performed using Luciferase Assay System (Promega # E1501) as specified by the manufacturer. Luminescence was read with an integration time of 1 s and a gain of 110 using a Cytation-5 multi-mode microplate reader (BioTek). Relative luminescence units were normalized to Tg treatment (0% inhibition) and untreated cells (100% inhibition) and the percentage of ATF4 inhibition was calculated.
Accordingly, inhibition of ATF4 expression as a result of the test compound indicates suppression of the ISR pathway.

The subject of assay [1] is Chinese hamster ovary (CHO) cells. Nature of the assay: Protein translation assay (puromycin labelling, western blot). The conditions noted are these: 2 hours, media alone = 100%; for activity at 1 µM: Cricetulus griseus, unstressed CHO cells (without Tg), 1 μM test compound, read-out: % Protein synthesis relative to untreated (1 μM test compound); for % Recovery of protein synthesis (1 μM test compound): stressed CHO cells, 300 nM Tg, Tg alone = 0%. Type of assay: cell-based. Here is the method:
Chinese hamster ovary (CHO) cells were maintained at 37° C. and 5% C02 in Dulbecco's Modified Eagle's Media (DMEM) supplemented with 10% fetal bovine serum, 2 mM L-glutamine, 100 U/ml penicillin, and 100 μg/ml streptomycin. After reaching 80% of confluence, cells were detached and seeded on 6 well plates in complete media, allowed to recover overnight and treated for 2 hours with 1 μM of the test compound (to assess protein synthesis levels in unstressed condition), or for 2 hours with 300 nM Tg in the presence of 1 μM of the test compound (to assess the recovery of protein synthesis in a stressed condition). Cells with Tg alone were used as controls.
After the 2 hours treatments, media were replaced by adding 10 μg/ml puromycin (Sigma Aldrich # P8833) in complete media for 30 min. Media were removed and cells were lysed with SDS-PAGE lysis buffer. Lysates were transferred to 1.5 ml tubes and sonicated for 3 min and total protein amount were quantified using BCA Protein Assay Kit (Pierce). Equal amount of protein (30 μg) was loaded on SDS-PAGE gels. Proteins were transferred onto 0.2 μm PVDF membranes (BioRad) and probed with primary antibodies diluted in Tris-buffered saline supplemented with 0.1% Tween 20 (Merck # S6996184 505) and 3% bovine serum albumin (Rockland # BSA-50).
Puromycin (12D10) (Merck # MABE343) and β-actin (Sigma Aldrich # A5441) antibodies were used as primary antibody. A HRP-conjugated secondary antibody (Rockland) was employed to detect immune-reactive bands using enhanced chemiluminescence (ECL Western Blotting Substrate, Pierce). Quantification of protein bands was done by densitometry using ImageJ software.
Percent increase of protein synthesis in unstressed cells (without Tg treatment) in the presence of media alone or certain test compounds is shown in Table 3. The percentage levels were normalized to the media alone condition, which correspond to 100% protein synthesis.
Percent recovery of protein synthesis in stressed cells (with Tg treatment) due to the test compounds at 1 μM is also shown in Table 3. The levels were normalized to the media alone and Tg alone conditions, which correspond to 100% and 0% respectively.

`O=C(COc1ccc(Cl)c(F)c1)N[C@@H]1CC[C@H](NC(=O)c2cc3cc(Cl)ccc3o2)C1` [Compound 17, 5-chloro-N-((1S,3R)-3-(2-(4-chloro-3-fluorophenoxy)acetamido)cyclopentyl)benzofuran-2-carboxamide]: the IC50 in the assay with ATF4 came to 102 nM. Also, in assay [1], the activity at 1 µM came out at 78.4% and the “% Recovery of protein synthesis (1 μM test compound)” value (“% Recovery of protein synthesis” below) worked out at 22%.

`O=C(COc1ccc(Cl)c(F)c1)NCC1CCN(C(=O)COc2ccc(Cl)c(F)c2)C1` (stereo not drawn) [Compound 4, 2-(4-chloro-3-fluorophenoxy)-N-((1-(2-(4-chloro-3-fluorophenoxy)acetyl)pyrrolidin-3-yl)methyl)acetamide]: in the assay with ATF4, the IC50 was more than 100 nM. Also, the activity at 1 µM in assay [1] came to 76.1%.

With `O=C(COc1ccc(Cl)c(F)c1)NCC1CCC(NCC(O)COc2ccc(Cl)c(F)c2)C1` (stereo not drawn) [Compound 89, 2-(4-chloro-3-fluorophenoxy)-N-((3-((3-(4-chloro-3-fluorophenoxy)-2-hydroxypropyl)amino)cyclopentyl)methyl)acetamide], in the assay on ATF4, the IC50 was more than 1000 nM. In addition, in assay [1], the activity at 1 µM worked out at 119% and the “% Recovery of protein synthesis” value is given as 42.5%.

On to `O=C(COc1ccc(Cl)c(F)c1)NC[C@@H]1CCN(NC(=O)c2cc3cc(Cl)ccc3o2)C1` [Compound 96, (S)-5-chloro-N-(3-((2-(4-chloro-3-fluorophenoxy)acetamido)methyl)pyrrolidin-1-yl)benzofuran-2-carboxamide], for which the IC50 in the assay with ATF4 was determined as 4.97 nM. Besides, in assay [1], the activity at 1 µM turned out to be 110% and the “% Recovery of protein synthesis” value is recorded as 24.5%.

Regarding `O=C(NC1CCN(CC(O)COc2ccc(Cl)c(F)c2)C1)c1cc2cc(Cl)ccc2o1` (stereo not drawn) [Compound 98, 5-chloro-N-(1-(3-(4-chloro-3-fluorophenoxy)-2-hydroxypropyl)pyrrolidin-3-yl)benzofuran-2-carboxamide], the IC50 with ATF4 is more than 100 nM. For the same compound, in assay [1], the activity at 1 µM was 167% and the “% Recovery of protein synthesis” value is on record as 142.63%.

With `O=C(NCC1CCN(C[C@H](O)COc2ccc(Cl)c(F)c2)C1)c1ccc2cc(Cl)ccc2n1` (stereo partly drawn) [Compound 81, 6-chloro-N-((1-((S)-3-(4-chloro-3-fluorophenoxy)-2-hydroxypropyl)pyrrolidin-3-yl)methyl)quinoline-2-carboxamide], in the assay with ATF4, the IC50 stood at 1000 nM. Moreover, in assay [1], the activity at 1 µM amounted to 134% and the “% Recovery of protein synthesis” value came to 38.7%.

As to `O=C(COc1ccc(Cl)c(F)c1)NCC1CCN(C(=O)c2ccc3cc(Cl)ccc3n2)C1` (stereo not drawn) [Compound 5, 2-(4-chloro-3-fluorophenoxy)-N-((1-(6-chloroquinoline-2-carbonyl)pyrrolidin-3-yl)methyl)acetamide], the IC50 with ATF4 is more than 100 nM. Further, in assay [1], the activity at 1 µM came out at 94.2% and the “% Recovery of protein synthesis” value is reported as 0.00%.

Take `O=C(COc1ccc(Cl)c(F)c1)N[C@H]1CC[C@@H](NCC(O)COc2ccc(Cl)c(F)c2)C1` (stereo partly drawn) [Compound 2, 2-(4-chloro-3-fluorophenoxy)-N-((1S,3R)-3-((3-(4-chloro-3-fluorophenoxy)-2-hydroxypropyl)amino)cyclopentyl)acetamide]: in the assay on ATF4, the IC50 is more than 1000 nM. Moreover, in assay [1], the activity at 1 µM is 84.7% and the “% Recovery of protein synthesis” value amounted to 28.2%.

`O=C(NC1CCN(CC(O)COc2ccc(Cl)c(F)c2)C1)c1ccc2cc(Cl)ccc2n1` (stereo not drawn) [Compound 53, 6-chloro-N-(1-(3-(4-chloro-3-fluorophenoxy)-2-hydroxypropyl)pyrrolidin-3-yl)quinoline-2-carboxamide]: the IC50 in the assay with ATF4 is more than 1000 nM. Moreover, in assay [1], the activity at 1 µM was 102% and the “% Recovery of protein synthesis” value came to 37.93%.

In the case of `O=C(COc1ccc(Cl)c(F)c1)NCC1CCN(NC(=O)c2ccc3cc(Cl)ccc3n2)C1` (stereo not drawn) [Compound 93, 6-chloro-N-(3-((2-(4-chloro-3-fluorophenoxy)acetamido)methyl)pyrrolidin-1-yl)quinoline-2-carboxamide], the IC50 in the assay with ATF4 is 2.8 nM. Moreover, in assay [1], the activity at 1 µM was 102% and the “% Recovery of protein synthesis” value is 51.4%.

Regarding `O=C(COc1ccc(Cl)c(F)c1)NCC1CCC(NC(=O)c2ccc3cc(Cl)ccc3n2)C1` (stereo not drawn) [Compound 85, 6-chloro-N-(3-((2-(4-chloro-3-fluorophenoxy)acetamido)methyl)cyclopentyl)quinoline-2-carboxamide], the 50% inhibitory concentration (IC50) in the assay with ATF4 is less than 1000 nM. For the same compound, the activity at 1 µM in assay [1] came out at 88%.

In the case of `O=C(COc1ccc(Cl)c(F)c1)N[C@H]1CC[C@H](NCC(O)COc2ccc(Cl)c(F)c2)C1` (stereo partly drawn) [Compound 20, 2-(4-chloro-3-fluorophenoxy)-N-((1S,3S)-3-((3-(4-chloro-3-fluorophenoxy)-2-hydroxypropyl)amino)cyclopentyl)acetamide], the IC50 in the assay on ATF4 was more than 100 nM. For the same compound, in assay [1], the activity at 1 µM amounted to 123% and the “% Recovery of protein synthesis” value came out at 52.5%.

As for `O=C(N[C@H]1CC[C@H](NCC(O)COc2ccc(Cl)c(F)c2)C1)c1cc2cc(Cl)ccc2o1` (stereo partly drawn) [Compound 18, 5-chloro-N-((1S,3S)-3-((3-(4-chloro-3-fluorophenoxy)-2-hydroxypropyl)amino)cyclopentyl)benzofuran-2-carboxamide], in the assay with ATF4, the IC50 came out at 178 nM. Besides, the activity at 1 µM in assay [1] stood at 158%.

Consider `O=C(COc1ccc(Cl)c(F)c1)N[C@H]1CC[C@H](NC(=O)c2ccc3cc(Cl)ccc3n2)C1` [Compound 16, 6-chloro-N-((1S,3S)-3-(2-(4-chloro-3-fluorophenoxy)acetamido)cyclopentyl)quinoline-2-carboxamide], for which the half-inhibitory concentration (IC50) with ATF4 was 134 nM. The activity at 1 µM in assay [1] amounted to 95.4%.

For the compound `O=C(COc1ccc(Cl)c(F)c1)NCC1CCN(CC(O)COc2ccc(Cl)c(F)c2)C1` (stereo not drawn) [Compound 7, 2-(4-chloro-3-fluorophenoxy)-N-((1-(3-(4-chloro-3-fluorophenoxy)-2-hydroxypropyl)pyrrolidin-3-yl)methyl)acetamide], the IC50 in the assay with ATF4 is more than 100 nM. In addition, the activity at 1 µM in assay [1] was found to be 122%.

`O=C(COc1ccc(Cl)c(F)c1)NCC1CCN(C(=O)c2cc3cc(Cl)ccc3o2)C1` (stereo not drawn) [Compound 6, 2-(4-chloro-3-fluorophenoxy)-N-((1-(5-chlorobenzofuran-2-carbonyl)pyrrolidin-3-yl)methyl)acetamide]: the IC50 in the assay on ATF4 was more than 100 nM. For the same compound, in assay [1], the activity at 1 µM came out at 81.2% and the “% Recovery of protein synthesis” value turned out to be 0.00%.

Consider `O=C(COc1ccc(Cl)c(F)c1)NC1CCN(CCCOc2ccc(Cl)c(F)c2)C1` (stereo not drawn) [Compound 100, 2-(4-chloro-3-fluorophenoxy)-N-(1-(3-(4-chloro-3-fluorophenoxy)propyl)pyrrolidin-3-yl)acetamide], for which the IC50 in the assay on ATF4 was more than 100 nM. In assay [1], the activity at 1 µM came out at 69.1% and the “% Recovery of protein synthesis” value is listed as 0.00%.

For `O=C(COc1ccc(Cl)c(F)c1)NC1CCC(CNC(=O)c2cc3cc(Cl)ccc3o2)C1` (stereo not drawn) [Compound 88, 5-chloro-N-((3-(2-(4-chloro-3-fluorophenoxy)acetamido)cyclopentyl)methyl)benzofuran-2-carboxamide], the IC50 in the assay on ATF4 is less than 1000 nM. Moreover, the activity at 1 µM in assay [1] was found to be 76.4%.
